Laboratory results as given in PubChem BioAssay (NCI).
Several values for one entry are separate records, joined by “and”; a condition that tells them apart may be missing. Identical values can stand only once.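 Where inhibition never reached the appropriate level, the endpoint shown equals the highest concentration tested. Otherwise, values were interpolated linearly from a five-concentration, 48-hour dose response in 96-well plates. Abbreviation: GI50, concentration required for 50% inhibition of growth. TGI marks complete inhibition of growth.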

Tests used:
Test in all cases: inhibition of tumour cell growth, NCI panel, 48 h
[1] = system: MDA-MB-231 breast
[2] = system: HCT-15 colon
[3] = system: NCI-H23 lung
[4] = system: M14 melanoma
[5] = system: UACC-62 melanoma
[6] = system: OVCAR-3 ovarian
[7] = system: HCC-2998 colon
[8] = system: SK-MEL-5 melanoma
[9] = system: HS 578T breast
[10] = system: HCT-116 colon

Structure (SMILES)	TGI [1]	TGI [2]	GI50 [3]	TGI [3]	GI50 [4]	TGI [4]	TGI [5]	GI50 [6]	TGI [6]	GI50 [7]	TGI [7]	GI50 [8]	TGI [9]	GI50 [1]	GI50 [2]	GI50 [10]	TGI [10]	GI50 [5]	TGI [8]	GI50 [9]
O=C1NC(c2cccc3ccccc23)Nc2ccccc21 (centres undefined)	3030 nM	2280 nM and 2170 nM	26.2 nM	24800 nM	17.7 nM	672 nM	> 100000 nM	21.5 nM	56.8 nM and 44.2 nM	173 nM	743 nM and 489 nM	9.88 nM	92200 nM	–	–	–	–	–	–	–
O=C(Nc1cccc(-n2ccc3c(NC(=O)c4ccccc4)nccc32)c1)c1ccc(Cl)c(Cl)c1	1340 nM	1310 nM	342 nM	2470 nM	117 nM	802 nM	1630 nM	41.3 nM	162 nM	286 nM	1270 nM	71.9 nM	1310 nM	302 nM	87.9 nM	98.9 nM	1220 nM	53.5 nM	347 nM	82.2 nM
O=[N+]([O-])c1cc(C(F)(F)F)cc2n[se]nc12	5840 nM	5590 nM	–	9580 nM	–	3220 nM	15000 nM	–	3330 nM	–	10200 nM	–	75600 nM	–	–	–	3460 nM	–	8020 nM	–
CCN(CC)CCNc1ccc(N=Nc2cnc3ccccc3c2)c2ccccc12	2380 nM	2930 nM	1600 nM	3070 nM	1790 nM	3290 nM	3210 nM	1780 nM	3430 nM	1750 nM	3160 nM	1670 nM	7300 nM	1120 nM	1470 nM	1510 nM	2840 nM	1700 nM	3030 nM	2620 nM
CC[C@H](C)C(=O)O[C@H]1CCC=C2C=C[C@H](C)[C@H](CC[C@@H]3C[C@@H](O)CC(=O)O3)[C@H]21	2540 nM	> 100000 nM	8370 nM	> 100000 nM	8970 nM	> 100000 nM	> 24400 nM	–	> 100000 nM	36900 nM	> 100000 nM	3390 nM	> 100000 nM	352 nM	2520 nM	2840 nM	> 59000 nM	2510 nM	13600 nM	4560 nM
Cc1cc2oc(=O)cc(OC/C=C3/CCC(=O)O3)c2cc1C	21000 nM	12200 nM	8040 nM	22500 nM	2180 nM	4870 nM	13600 nM	2930 nM	11400 nM	15400 nM	31000 nM	12400 nM	43700 nM	7710 nM	2690 nM	2720 nM	–	3380 nM	26300 nM	4760 nM
C=C1C(=O)O[C@H]2[C@H]1CC/C(CNC(=O)C(C)c1ccc(CC(C)C)cc1)=C\CC[C@@]1(C)O[C@@H]21 (some centres undefined)	4000 nM	3250 nM	1670 nM	3320 nM	1850 nM	3980 nM	3380 nM	1540 nM	2950 nM	1830 nM	3380 nM	1710 nM	7460 nM	1960 nM	1470 nM	1320 nM	2920 nM	1670 nM	3080 nM	2240 nM
N#Cc1ccc(C(=O)c2cnn(-c3ccc(F)cc3)c2N)cc1	> 25000 nM	> 25000 nM	> 25000 nM	> 25000 nM	> 25000 nM	> 25000 nM	> 25000 nM	> 25000 nM	> 25000 nM	> 25000 nM	> 25000 nM	> 25000 nM	> 25000 nM	> 23300 nM	> 25000 nM	> 25000 nM	> 25000 nM	> 25000 nM	> 25000 nM	> 25000 nM
CC(=O)OCC1OC([S-])C(OC(C)=O)C(OC(C)=O)C1OC(C)=O.[Au+].c1ccc(CN2[CH-]N(Cc3ccccc3)C(c3ccccc3)=C2c2ccccc2)cc1	3620 nM and 951 nM	3680 nM and 2000 nM	1930 nM and 408 nM	4860 nM and 3110 nM	2270 nM and 798 nM	5660 nM and 3000 nM	5620 nM and 1140 nM	1800 nM and 444 nM	3250 nM and 1280 nM	1640 nM and 625 nM	3340 nM and 1900 nM	4950 nM and 839 nM	8560 nM and 7740 nM	1840 nM and 281 nM	1800 nM and 906 nM	3080 nM and 554 nM	9950 nM and 2520 nM	2150 nM and 249 nM	–	2620 nM and 396 nM
C=C1C(=O)O[C@H]2C3OC3(C)CC/C=C(/C(=O)OC)[C@@H](OC(C)=O)[C@H](OC(=O)C3(C)OC3C)[C@H]12 (some centres undefined)	5900 nM and 4710 nM	2.78 µM and 32.2 µM and 2.13 µg/mL	1930 nM and 2680 nM	7270 nM and 6540 nM	1.5 µM and 850 nM and 0.499 µg/mL	3.13 µM and 2.4 µM and 1.29 µg/mL	3.01 µM and 3.64 µg/mL	1.37 µM and 0.984 µg/mL	4.07 µM and 3.13 µg/mL	3.65 µM and 2.5 µg/mL	12.4 µM and 4.62 µg/mL	1.88 µM and 1.91 µM and 2.6 µg/mL	24400 nM	1230 nM	899 nM and 3.85 µM and 0.482 µg/mL	1.17 µM and 668 nM and 0.444 µg/mL	2.39 µM and 1.67 µM and 1.19 µg/mL	1.59 µM and 1.66 µg/mL	3.87 µM and 7.72 µM and 9.58 µg/mL	–
Cc1c(C(=O)/C=C/c2ccc(Cl)cc2)nnn1-c1ccnc2c(C(F)(F)F)cccc12	72700 nM	> 100000 nM	35800 nM	> 100000 nM	> 100000 nM	> 100000 nM	> 100000 nM	36600 nM	> 100000 nM	72800 nM	> 100000 nM	53500 nM	> 100000 nM	17200 nM	54600 nM	25600 nM	> 100000 nM	26500 nM	> 100000 nM	64300 nM
CCCCNP1(NCCCC)=NP(NCCCC)(NCCCC)=NP(NCCCC)(NCCCC)=NP(NCCCC)(NCCCC)=N1	4080 nM	99500 nM	271 nM	3200 nM	1080 nM	5230 nM	5910 nM	243 nM	871 nM	304 nM	3700 nM	541 nM	7710 nM	418 nM	21200 nM	209 nM	810 nM	567 nM	1890 nM	1430 nM
